Here are results for 46 molecules from US4581354A, “3-arylcarbonyl- and 3-cycloalkylcarbonyl-1-aminoalkyl-1H-indoles, compositions and use” (Sterling Drug Inc., priority 1985, dated 1986).

The assay has as its system acetylcholine-induced abdominal constriction. As to the kind of experiment: animal or person. The note with it: for ED50: read-out: Ach ED50; for inhibition in vivo at 3 mg/kg: 3 mg./kg. i.v.; for inhibition in vivo at 100 mg/kg: 100 mg./kg. oral; for inhibition in vivo at 1000 mg/kg: 1000 mg./kg. oral; for inhibition in vivo at 300 mg/kg: 300 mg./kg. oral; for inhibition in vivo at 30 mg/kg: 30 mg./kg. oral; for inhibition in vivo at 550 mg/kg: 550 mg./kg. oral. The format is in vivo, mice. An excerpt: The test procedures used to determine the analgesic activities of the compounds have been described in detail in the prior art and are as follows: The acetylcholine-induced abdominal constriction test, which is a primary analgesic screening test designed to measure the ability of a test agent to suppress acetylcholine-induced abdominal constriction in mice, described by Collier et al., Brit. J. Pharmacol. Chemotherap. 32, 295 (1968); a modification of the anti-bradykinin test, which is also a primary analgesic screening procedure, described by Berkowitz et al., J. Pharmacol. Exptl. Therap. 177, 500-508 (1971), Blane et al., J. Pharm. Pharmacol. 19, 367-373 (1967), Botha et al., Eur. J. Pharmacol. 6, 312-321 (1969) and Deffenu et al., J. Pharm. Pharmacol. 18, 135 (1966); and the rat paw flexion test, described by Kuzuna et al., Chem. Pharm. Bull., 23, 1184-1191 (1975), Winter et al., J. Pharm. Exptl. Therap., 211, 678-685 (1979) and Capetola et al., J. Pharm. Exptl. Therap. 214, 16-23 (1980).
Unless noted otherwise, all data were obtained on oral administration and are expressed either as the ED50 or as the percent inhibition at a given dose level (thus 30/100 or 30% inhibition at […].)
In some instances, the compounds were retested two or more times, and ED50 values were calculated for each series of repeat tests. In such instances, each of the ED50 values so-obtained is given in a series of values, thus 6, 28, 30, 43 in the case of the species of Example 1AW in the acetylcholine-induced abdominal constriction test.

[1] abbreviates: Mus musculus, iv, read-out: Ach percent inhibition.
The mark [2] stands for this setting: Mus musculus, po, read-out: Ach percent inhibition.

The structures appear in SMILES notation. Where two headings read alike, the source gives them in different places.

Turning to `COc1ccc(C(=O)c2c(C)n(CCCN3CCOCC3)c3ccc(F)cc23)cc1.Cl` [Example 1I, 5-fluoro-2-methyl-3-(4-methoxybenzoyl)-1-[3-(4-morpholinyl)propyl]-1H-indole hydrochloride], the ED50 (commonly the dose that gives a 50% effect, or the effect in half of the subjects) (Mus musculus, iv) came to 8.5 mg/kg and the ED50 (Mus musculus, po) was 75 mg/kg. `COc1ccc(C(=O)c2c(C)n(CCN3CCOCC3)c3ccccc23)cc1` [Example 1J]: the “Ach ED50” value (i.v.) stood at 6.7 mg/kg and the “Ach ED50” value (oral) was 86 mg/kg.

For `COc1ccc(C(=O)c2c(C)n(CCN3CCCC3)c3ccccc23)cc1` [Example 1K], under setting [1], the inhibition in vivo at 3 mg/kg came to 30%. For the setting “Mus musculus, iv, 5.5 mg./kg. i.v., read-out: Ach percent inhibition”, the inhibition in vivo at 5.5 mg/kg is 25%. Also, the inhibition in vivo at 10 mg/kg (Mus musculus, iv, 10 mg./kg. i.v., read-out: Ach percent inhibition) stood at 44%. Moreover, where the note is “Mus musculus, po”, the ED50 was 255 mg/kg. For the molecule `COc1ccc(C(=O)c2c(C)n(CCN3CCOCC3)c3c(F)cccc23)cc1` [Example 1M], the inhibition in vivo at 100 mg/kg under setting [2] came out at 50%.

As to `COc1ccc(C(=O)c2c(C)n(CCN3CCOCC3)c3c(OC)cccc23)cc1` [Example 1N], the ED50 (Mus musculus, po) came out at 35.8 mg/kg. Take `Cc1c(C(=O)c2ccc(F)cc2)c2ccccc2n1CCN1CCOCC1` [Example 1Q, 3-(4-fluorobenzoyl)-2-methyl-1-[2-(4-morpholinyl)ethyl]-1H-indole]: for the setting “Mus musculus, po, 24 mg./kg. oral, read-out: Ach percent inhibition”, the inhibition in vivo at 24 mg/kg was 7%. For the same molecule, the inhibition in vivo at 79 mg/kg (Mus musculus, po, 79 mg./kg. oral, read-out: Ach percent inhibition) turned out to be 27%. In addition, the inhibition in vivo at 238 mg/kg (Mus musculus, po, 238 mg./kg. oral, read-out: Ach percent inhibition) amounted to 60%. Besides, the inhibition in vivo at 435 mg/kg (Mus musculus, po, 435 mg./kg. oral, read-out: Ach percent inhibition) was determined as 67%. In addition, the inhibition in vivo at 793 mg/kg (Mus musculus, po, 793 mg./kg. oral, read-out: Ach percent inhibition) turned out to be 60%. Under setting [2], the inhibition in vivo at 1000 mg/kg came out at 67%.

For the molecule `Cc1c(C(=O)c2ccc3c(c2)OCO3)c2ccccc2n1CCN1CCOCC1` [Example 1R], under “Mus musculus, po”, the ED50 is 198 mg/kg. Regarding `Cc1c(C(=O)c2csc3ccccc23)c2ccccc2n1CCN1CCOCC1` [Example 1T], the ED50 amounted to 3.8 mg/kg (Mus musculus, iv) and 106 mg/kg (Mus musculus, po). `COc1ccccc1C(=O)c1c(C)n(CCN2CCOCC2)c2ccccc12` [Example 1U, 2-methyl-3-(2-methoxybenzoyl)-1-[2-(4-morpholinyl)ethyl]-1H-indole]: for the setting “Mus musculus, po”, the ED50 stood at 155 mg/kg.

As for `COc1ccc(C(=O)c2c(C)n(CCN3CCOCC3)c3ccccc23)cc1F` [Example 1V], under setting [2], the inhibition in vivo at 300 mg/kg was 20%.

For the molecule `Cc1c(C(=O)c2ccc3ccccc3c2)c2ccccc2n1CCN1CCOCC1` [Example 1W], the inhibition in vivo at 1 mg/kg (Mus musculus, iv, 1 mg./kg. i.v., read-out: Ach percent inhibition) came out at 10%. The inhibition in vivo at 1.73 mg/kg (Mus musculus, iv, 1.73 mg./kg. i.v., read-out: Ach percent inhibition) came to 0%. Besides, the inhibition in vivo at 3 mg/kg under setting [1] was determined as 86%. In addition, under setting [2], the inhibition in vivo at 30 mg/kg amounted to 0%, the inhibition in vivo at 300 mg/kg turned out to be 40% and the inhibition in vivo at 550 mg/kg is 47%. Turning to `COc1ccc(C(=O)c2cn(CCN3CCOCC3)c3ccc(C)cc23)cc1` [Example 1X], under setting [2], the inhibition in vivo at 300 mg/kg stood at 7%. With `Cc1c(C(=O)c2cccc(F)c2)c2ccccc2n1CCN1CCOCC1` [Example 1Y], under setting [2], the inhibition in vivo at 100 mg/kg was determined as 30%.

On to `Cc1c(C(=O)c2ccccc2F)c2ccccc2n1CCN1CCOCC1` [Example 1Z, 3-(2-fluorobenzoyl)-2-methyl-1-[2-(4-morpholinyl)-ethyl]-1H-indole], for which, under “Mus musculus, po”, the median effective dose (ED50) was 68 mg/kg.

For the molecule `Cc1c(C(=O)c2ccc(S(C)(=O)=O)cc2)c2ccccc2n1CCN1CCOCC1` [Example 2-O], the inhibition in vivo at 100 mg/kg under setting [2] was 20%. On to `Cc1ccc(C(=O)c2cn(C(C)CN3CCOCC3)c3ccccc23)cc1` (stereo not shown) [Example 2A, 3-(4-methylbenzoyl)-1-[1-methyl-2-(4-morpholinyl)ethyl]-1H-indole], for which, under setting [2], the inhibition in vivo at 30 mg/kg is 7%, the inhibition in vivo at 300 mg/kg is 60%, the inhibition in vivo at 550 mg/kg stood at 73% and the inhibition in vivo at 1000 mg/kg came to 67%. Turning to `COc1ccc(C(=O)c2c(Cl)n(CCN3CCOCC3)c3ccccc23)cc1` [Example 2AB], the 50% effective dose (ED50) (Mus musculus, po) came out at 91 mg/kg.

With `CCCc1ccc(C(=O)c2c(C)n(CCN3CCOCC3)c3ccccc23)cc1` [Example 2AC], the inhibition in vivo at 100 mg/kg under setting [2] is 30%. `Cc1ccccc1C(=O)c1c(C)n(CCCN2CCOCC2)c2ccc(F)cc12` [Example 2AD]: under setting [2], the inhibition in vivo at 100 mg/kg worked out at 10%.

As to `Cc1c(C(=O)c2ccc(F)cc2)c2cc(F)ccc2n1CCCN1CCOCC1` [Example 2AE], under setting [2], the inhibition in vivo at 100 mg/kg was 20%. Still for that read-out and setting: the result for `Cc1c(C(=O)c2ccoc2)c2cc(F)ccc2n1CCCN1CCOCC1` [Example 2AF] reads 30%. Regarding `Cc1c(C(=O)C=Cc2ccccc2)c2cc(F)ccc2n1CCCN1CCOCC1` [Example 2AG], for the setting “Mus musculus, po”, the ED50 was determined as 143 mg/kg. As for `Cc1c(C(=O)c2ccc(F)cc2F)c2cc(F)ccc2n1CCN1CCOCC1` [Example 2AH], the inhibition in vivo at 100 mg/kg under setting [2] turned out to be 20%. With `Cc1c(C(=O)c2cccc3ccccc23)c2ccccc2n1C(C)CN1CCOCC1` (stereo not shown) [Example 2AK], where the note is “Mus musculus, iv, 0.3 mg./kg. i.v., read-out: Ach percent inhibition”, the inhibition in vivo at 0.3 mg/kg worked out at 30%.

`O=C(c1cccc2ccccc12)c1cn(CCN2CCOCC2)c2ccccc12` [Example 2AL]: the inhibition in vivo at 0.1 mg/kg (Mus musculus, iv, 0.1 mg./kg. i.v., read-out: Ach percent inhibition) stood at 20%. Take `Cc1c(C(=O)c2ccc3occc3c2)c2ccccc2n1CCN1CCOCC1` [Example 2AM]: the inhibition in vivo at 100 mg/kg under setting [2] is 80%. As for `Cc1c(C(=O)c2ccc(F)cc2F)c2ccccc2n1CCN1CCOCC1` [Example 2AN], the ED50 (Mus musculus, po) turned out to be 90 mg/kg. Turning to `Cc1c(C(=O)c2ccc(F)cc2F)c2cc(F)ccc2n1CCCN1CCOCC1` [Example 2AO], the inhibition in vivo at 100 mg/kg under setting [2] was 40%. As to `COc1ccc(C(=O)c2c(C)n(CCN3CCOCC3)c3ccccc23)c(F)c1` [Example 2AP], the 50% effective dose (ED50) (Mus musculus, po) was found to be 27 mg/kg. For the molecule `Cc1c(C(=O)c2ccc(Br)cc2)c2cc(F)ccc2n1CCCN1CCOCC1` [Example 2AR], the inhibition in vivo at 100 mg/kg under setting [2] was found to be 50%. As for `Cc1cccc(C(=O)c2c(C)n(CCN3CCOCC3)c3ccccc23)c1C` [Example 2AT], the inhibition in vivo at 100 mg/kg under setting [2] was found to be 20%.

For `Cc1c(C(=O)c2cc(Cl)cc(Cl)c2)c2ccccc2n1CCN1CCOCC1` [Example 2AU], under setting [2], the inhibition in vivo at 100 mg/kg was 30%. On the same count and under the same terms, the result for `Cc1cc(C)cc(C(=O)c2c(C)n(CCN3CCOCC3)c3ccccc23)c1` [Example 2AV] reads 10%; that for `Cc1cccc(C(=O)c2c(C)n(CCN3CCOCC3)c3ccccc23)c1` [Example 2AW], 20%; that for `Cc1c(C(=O)c2cccc(Cl)c2)c2ccccc2n1CCN1CCOCC1` [Example 2AX], 0%. For `Cc1c(C(=O)c2ccccc2Cl)c2ccccc2n1C(C)CN1CCOCC1` (stereo not shown) [Example 2AZ], the median effective dose (ED50) (Mus musculus, po) worked out at 26 mg/kg. Turning to `Cc1c(C(=O)c2ccccc2F)c2cc(F)ccc2n1CCCN1CCOCC1` [Example 2BB, 5-fluoro-3-(2-fluorobenzoyl)-2-methyl-1-[3-(4-morpholinyl)propyl]-1H-indole], the inhibition in vivo at 100 mg/kg under setting [2] stood at 40%.

As to `Cc1c(C(=O)c2ccoc2)c2ccccc2n1CCN1CCOCC1` [Example 2BC], the inhibition in vivo at 100 mg/kg under setting [2] was found to be 10%. In the case of `Cc1c(C(=O)c2ccccc2F)c2cc(F)ccc2n1C(C)CN1CCOCC1` (stereo not shown) [Example 2BD], where the note is “Mus musculus, po”, the median effective dose (ED50) was 15 mg/kg. Take `Cc1c(C(=O)c2ccc(Br)cc2)c2ccccc2n1CCN1CCOCC1` [Example 2BE]: the inhibition in vivo at 100 mg/kg under setting [2] worked out at 30%. On the same count and under the same terms, then `Cc1c(C(=O)c2ccc3[nH]cnc3c2)c2ccccc2n1CCN1CCOCC1` [Example 2BF], with 30%. On to `Cc1ccc(C(=O)c2c(C)n(C(C)CN3CCOCC3)c3ccccc23)cc1` (stereo not shown) [Example 2B], for which, under setting [2], the inhibition in vivo at 300 mg/kg came out at 47% and the inhibition in vivo at 550 mg/kg came out at 33%. On to `CC(CN1CCOCC1)n1cc(C(=O)c2ccc(F)cc2)c2ccccc21` (stereo not shown) [Example 2D], for which, under setting [2], the inhibition in vivo at 100 mg/kg amounted to 20%, the inhibition in vivo at 300 mg/kg is 40% and the inhibition in vivo at 1000 mg/kg was determined as 67%. In the case of `CC(CN1CCOCC1)n1cc(C(=O)c2ccccc2F)c2ccccc21` (stereo not shown) [Example 2E], the 50% effective dose (ED50) (Mus musculus, po) worked out at 33 mg/kg. For `CC(CN1CCOCC1)n1cc(C(=O)c2cccn2C)c2ccccc21` (stereo not shown) [Example 2F], under setting [2], the inhibition in vivo at 30 mg/kg is 20%, the inhibition in vivo at 100 mg/kg stood at 40% and the inhibition in vivo at 300 mg/kg came out at 33%. For `Cc1c(C(=O)c2ccc(F)cc2)c2ccccc2n1C(C)CN1CCOCC1` (stereo not shown) [Example 2G], the ED50 (Mus musculus, po) amounted to 42 mg/kg.
